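Five concentrations, 48 hours, 96-well plates. Abbreviation: GI50, concentration required for 50% inhibition of growth. TGI is the concentration that stops growth completely.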
Assays:
Experiment in all cases: NCI tumour cell line growth inhibition, 48 h
[1] = tested on: 786-0 renal
[2] = tested on: A498 renal
[3] = tested on: A549 NSCLC
[4] = tested on: ACHN renal
[5] = tested on: BT-549 breast
[6] = tested on: CAKI-1 renal
[7] = tested on: CCRF-CEM leukemia
[8] = tested on: COLO 205 colon
[9] = tested on: DU-145 prostate
[10] = tested on: EKVX NSCLC
[11] = tested on: HCC-2998 colon
[12] = tested on: HCT-116 colon
[13] = tested on: HCT-15 colon
[14] = tested on: HL-60(TB) leukemia
[15] = tested on: HOP-62 NSCLC
[16] = tested on: HOP-92 NSCLC
[17] = tested on: HS 578T breast
[18] = tested on: HT29 colon
[19] = tested on: IGROV1 ovarian
[20] = tested on: K-562 leukemia
[21] = tested on: KM12 colon
[22] = tested on: LOX IMVI melanoma
[23] = tested on: M14 melanoma
[24] = tested on: MALME-3M melanoma
[25] = tested on: MCF7 breast
[26] = tested on: MDA-MB-231 breast
[27] = tested on: MDA-MB-435
[28] = tested on: MOLT-4 leukemia
[29] = tested on: NCI-H226 lung
[30] = tested on: NCI-H23 lung
[31] = tested on: NCI-H460 lung
[32] = tested on: NCI-H522 lung
[33] = tested on: NCI/ADR-RES ovarian
[34] = tested on: OVCAR-3 ovarian
[35] = tested on: OVCAR-4 ovarian
[36] = tested on: OVCAR-5 ovarian
[37] = tested on: OVCAR-8 ovarian
[38] = tested on: PC-3 prostate
[39] = tested on: RPMI-8226 leukemia
[40] = tested on: RXF 393 renal
[41] = tested on: SF-268 CNS
[42] = tested on: SF-295 CNS
[43] = tested on: SF-539 CNS
[44] = tested on: SK-MEL-2 melanoma
[45] = tested on: SK-MEL-28 melanoma
[46] = tested on: SK-MEL-5 melanoma
[47] = tested on: SK-OV-3 ovarian
[48] = tested on: SN12C renal
[49] = tested on: SNB-19 CNS
[50] = tested on: SNB-75 CNS
[51] = tested on: SW-620 colon
[52] = tested on: T-47D breast
[53] = tested on: TK-10 renal
[54] = tested on: U251 CNS
[55] = tested on: UACC-257 melanoma
[56] = tested on: UACC-62 melanoma
[57] = tested on: UO-31 renal

SMILES: CSc1ccc(C2=NN(C(C)=O)C(c3ccc(-c4ccc(Cl)cc4)o3)C2)cc1 (centres undefined)
- GI50 [1]: 38.8 µM
- TGI [1]: > 100 µM
- GI50 [2]: 26 µM
- TGI [2]: 48 µM
- GI50 [3]: 35.2 µM
- TGI [3]: > 100 µM
- GI50 [4]: 37.1 µM
- TGI [4]: > 100 µM
- GI50 [5]: 76.4 µM
- TGI [5]: > 100 µM
- GI50 [6]: 31.1 µM
- TGI [6]: > 100 µM
- GI50 [7]: 44.2 µM
- TGI [7]: > 100 µM
- GI50 [8]: 36.2 µM
- TGI [8]: > 100 µM
- GI50 [9]: 81 µM
- TGI [9]: > 100 µM
- GI50 [10]: 50.2 µM
- TGI [10]: > 100 µM
- GI50 [11]: 47.1 µM
- TGI [11]: > 100 µM
- GI50 [12]: 18.7 µM
- TGI [12]: > 100 µM
- GI50 [13]: 23.2 µM
- TGI [13]: > 100 µM
- GI50 [14]: 15.3 µM
- TGI [14]: > 100 µM
- GI50 [15]: 42.4 µM
- TGI [15]: > 100 µM
- GI50 [16]: 22.7 µM
- TGI [16]: 80.1 µM
- GI50 [17]: 49.8 µM
- TGI [17]: > 100 µM
- GI50 [18]: 30.4 µM
- TGI [18]: > 100 µM
- GI50 [19]: 6.06 µM
- TGI [19]: > 100 µM
- GI50 [20]: 31.5 µM
- TGI [20]: > 100 µM
- GI50 [21]: 24 µM
- TGI [21]: > 100 µM
- GI50 [22]: 32.8 µM
- TGI [22]: > 100 µM
- GI50 [23]: 29.8 µM
- TGI [23]: > 100 µM
- GI50 [24]: 43.2 µM
- TGI [24]: > 100 µM
- GI50 [25]: 39.9 µM
- TGI [25]: > 100 µM
- GI50 [26]: 19.3 µM
- TGI [26]: > 100 µM
- GI50 [27]: 29.2 µM
- TGI [27]: > 100 µM
- GI50 [28]: 16.4 µM
- TGI [28]: 97.3 µM
- GI50 [29]: 44.4 µM
- TGI [29]: > 100 µM
- GI50 [30]: 86.1 µM
- TGI [30]: > 100 µM
- GI50 [31]: 40 µM
- TGI [31]: > 100 µM
- GI50 [32]: 18.7 µM
- TGI [32]: 60.3 µM
- GI50 [33]: 41.4 µM
- TGI [33]: > 100 µM
- GI50 [34]: 21 µM
- TGI [34]: 80.9 µM
- GI50 [35]: 32.9 µM
- TGI [35]: > 100 µM
- GI50 [36]: > 100 µM
- TGI [36]: > 100 µM
- GI50 [37]: 81.7 µM
- TGI [37]: > 100 µM
- GI50 [38]: 20.1 µM
- TGI [38]: > 100 µM
- GI50 [39]: 23.8 µM
- TGI [39]: > 100 µM
- GI50 [40]: 44.6 µM
- TGI [40]: > 100 µM
- GI50 [41]: 21.7 µM
- TGI [41]: 71.4 µM
- GI50 [42]: 34 µM
- TGI [42]: > 100 µM
- GI50 [43]: 60.2 µM
- TGI [43]: > 100 µM
- GI50 [44]: 28.9 µM
- TGI [44]: > 100 µM
- GI50 [45]: 86.2 µM
- TGI [45]: > 100 µM
- GI50 [46]: 29.1 µM
- TGI [46]: > 100 µM
- GI50 [47]: 28.9 µM
- TGI [47]: > 100 µM
- GI50 [48]: 21.7 µM
- TGI [48]: 40.6 µM
- GI50 [49]: > 100 µM
- TGI [49]: > 100 µM
- GI50 [50]: 25.4 µM
- TGI [50]: > 100 µM
- GI50 [51]: 77.7 µM
- TGI [51]: > 100 µM
- GI50 [52]: 17.9 µM
- TGI [52]: 79.6 µM
- GI50 [53]: 37.3 µM
- TGI [53]: > 100 µM
- GI50 [54]: 31.3 µM
- TGI [54]: > 100 µM
- GI50 [55]: 77 µM
- TGI [55]: > 100 µM
- GI50 [56]: 20.1 µM
- TGI [56]: > 100 µM
- GI50 [57]: 28.5 µM
- TGI [57]: > 100 µM
